The source of these data is patent publication US6855843B2, “Inhibitors of α4 mediated cell adhesion” (Tanabe Seiyaku Co., Ltd., priority 1998, dated 2005).

Data set [1] addresses T1, α4β7 (adhesion of RPMI cells to CS-1) (Homo sapiens, UniProt P13612+P26010).
T1 construct: endogenous in cells
T1 sequence (P13612 34-1032): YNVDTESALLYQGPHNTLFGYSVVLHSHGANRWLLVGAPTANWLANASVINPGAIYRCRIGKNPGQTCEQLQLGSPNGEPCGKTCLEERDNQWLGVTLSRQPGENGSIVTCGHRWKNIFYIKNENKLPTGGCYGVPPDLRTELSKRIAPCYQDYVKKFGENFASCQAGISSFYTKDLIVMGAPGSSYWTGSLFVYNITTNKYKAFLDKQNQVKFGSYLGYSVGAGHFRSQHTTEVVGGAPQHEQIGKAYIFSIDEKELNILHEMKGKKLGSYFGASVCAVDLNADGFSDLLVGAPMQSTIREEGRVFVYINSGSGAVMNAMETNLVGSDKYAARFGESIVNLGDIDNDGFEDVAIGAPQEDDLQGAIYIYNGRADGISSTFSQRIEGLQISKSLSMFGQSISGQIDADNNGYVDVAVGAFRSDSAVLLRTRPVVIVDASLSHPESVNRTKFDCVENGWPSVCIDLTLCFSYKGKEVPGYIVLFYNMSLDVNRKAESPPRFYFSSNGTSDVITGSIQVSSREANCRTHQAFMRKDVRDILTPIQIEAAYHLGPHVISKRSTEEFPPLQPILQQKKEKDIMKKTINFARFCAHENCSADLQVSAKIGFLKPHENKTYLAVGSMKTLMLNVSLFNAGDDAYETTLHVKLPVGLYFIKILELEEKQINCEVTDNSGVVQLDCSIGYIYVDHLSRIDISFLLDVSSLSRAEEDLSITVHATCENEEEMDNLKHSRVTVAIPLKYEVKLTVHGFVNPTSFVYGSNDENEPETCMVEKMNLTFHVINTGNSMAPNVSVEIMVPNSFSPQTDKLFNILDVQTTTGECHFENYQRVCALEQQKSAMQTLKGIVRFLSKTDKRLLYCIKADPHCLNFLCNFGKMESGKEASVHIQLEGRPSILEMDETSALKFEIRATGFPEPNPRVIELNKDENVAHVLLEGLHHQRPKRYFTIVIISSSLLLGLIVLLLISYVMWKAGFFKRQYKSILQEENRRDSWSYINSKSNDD
T1 sequence (P26010 20-798): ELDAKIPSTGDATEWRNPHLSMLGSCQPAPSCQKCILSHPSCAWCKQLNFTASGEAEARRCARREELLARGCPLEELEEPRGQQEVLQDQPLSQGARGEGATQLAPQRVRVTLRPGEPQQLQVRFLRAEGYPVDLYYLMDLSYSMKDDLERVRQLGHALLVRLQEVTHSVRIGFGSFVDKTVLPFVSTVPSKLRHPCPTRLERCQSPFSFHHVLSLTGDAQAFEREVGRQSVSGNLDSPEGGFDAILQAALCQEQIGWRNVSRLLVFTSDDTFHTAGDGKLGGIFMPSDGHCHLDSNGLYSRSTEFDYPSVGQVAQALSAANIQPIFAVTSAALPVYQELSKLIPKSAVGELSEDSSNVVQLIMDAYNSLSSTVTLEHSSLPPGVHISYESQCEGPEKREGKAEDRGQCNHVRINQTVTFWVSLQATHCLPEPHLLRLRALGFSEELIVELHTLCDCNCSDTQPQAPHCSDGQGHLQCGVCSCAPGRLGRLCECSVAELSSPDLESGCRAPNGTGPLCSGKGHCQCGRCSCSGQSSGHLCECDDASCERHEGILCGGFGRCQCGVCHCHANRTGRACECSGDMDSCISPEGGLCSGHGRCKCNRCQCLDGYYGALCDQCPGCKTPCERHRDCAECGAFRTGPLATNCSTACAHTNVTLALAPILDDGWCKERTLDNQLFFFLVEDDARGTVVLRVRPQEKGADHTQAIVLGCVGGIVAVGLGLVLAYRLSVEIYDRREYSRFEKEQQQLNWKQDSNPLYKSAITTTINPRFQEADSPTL
As to the kind of experiment: RPMI-CS-1 cell adhesion assay. As to conditions: adhesion of RPMI B-cell line (expresses α4β7) to CS-1 peptide coated microwells; read-out: RPMI-CS-1 IC50 value range. It counts as cell-based.

Bounds are passed on as bounds.

As to `COc1cc(NC(=O)Nc2ccccc2C)cc(OC)c1-c1ccc(C[C@H](NC(=O)c2c(Cl)cccc2Cl)C(=O)O)cc1` [Example 161, N-(2,6-Dichlorobenzoyl)-4-[4-[3-(2-methylphenyl)ureido]-2,6-dimethoxyphenyl]-L-phenylalanine], the melting point was 194 to 195 °C. The 50% inhibitory concentration (IC50) in data set [1] is less than 300 nM.

`COc1cccc(OC)c1-c1ccc(C[C@H](NC(=O)c2c(Cl)cc(-c3ccccc3)cc2Cl)C(=O)O)cc1` [Example 301, N-(2,6-Dichloro-4-phenylbenzoyl)-4-(2,6-dimethoxyphenyl)-L-phenylalanine] came in with a melting point of 215 °C. The half-maximal inhibitory concentration (IC50) in data set [1] was less than 300 nM.

As to `COc1cccc(OC)c1-c1ccc(C[C@H](NC(=O)c2c(Cl)ccc(-c3c(C)noc3C)c2Cl)C(=O)O)cc1` [Example 305, N-[3-(3,5-Dimethyl-4-isoxazolyl)-2,6-dichlorobenzoyl]-4-(2,6-dimethoxyphenyl)-L-phenylalanine], the melting point amounted to 144.8 °C. Further, the IC50 in data set [1] was in the range of 300 to 1000 nM.

As for `O=C(N[C@@H](Cc1ccc(-c2cccc3c2OCCC3)cc1)C(=O)O)c1c(Cl)cccc1Cl` [Example 328], the melting point fell in the range of 214 to 215 °C. Further, in data set [1], the half-inhibitory concentration (IC50) was less than 300 nM.

For the compound `CC(O)c1cc(C[C@H](NC(=O)c2c(Cl)cccc2Cl)C(=O)O)ccc1-c1ccccc1` (stereo partly drawn) [Example 74, N-(2,6-Dichlorobenzoyl)-3-(1-hydroxyethyl)-4-phenyl-L-phenylalanine], the melting point lay in the range of 115 to 117 °C. Further, in data set [1], the half-inhibitory concentration (IC50) fell in the range of 300 to 1000 nM.
